# Values of other authors in article PMC8760190 (Molecular Imaging and Biology, 2021).
# Conditions: 90 min after injection, rats and mice
row,Structure (SMILES),Non-metabolized parent compound as share of remaining radioactivity in the brain
1,CCN(CC)C(=O)Cc1c(-c2ccc(OCC[18F])cc2)nn2c(C)cc(C)nc12 [[^18F]DPA-714],about 50%
2,CCN(CC)C(=O)Cc1c(-c2ccc([18F])cc2)nn2c(C)cc(C)nc12 [[^18F]F-DPA],more than 90%
